Laboratory results from PubChem BioAssay AID192 (DTP/NCI, 2004).
Inconclusive results and toxic doses are left out. How the source made its calls: active means survival T/C of 150% or more; inactive means T/C below 125% in these data.

Tested on: BDF1 mice, B16 melanoma ip, median survival T/C
Experiment: NCI In Vivo Anticancer Drug Screen. Data for tumor model B16 Melanoma (intraperitoneal) in B6D2F1 (BDF1) mice
Settings: endpoint: median survival time, higher = longer survival
In short: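 Mice with transplantable tumors; drug vs vehicle groups; endpoint survival or tumor size; value = T/C.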

Measured: T/C

CCOC(=O)c1ccc(OC(=O)Nc2ccccc2OC)cc1
inactive: dose: 100.0 mg/kg/injection, schedule: Q01DX009 (ip), vehicle: saline with Tween-80 95 % of control | dose: 200.0 mg/kg/injection, schedule: Q01DX009 (ip), vehicle: saline with Tween-80 88 % of control

CCN=NNc1ccc(C)cc1
inactive: dose: 3.13 mg/kg/injection, schedule: Q01DX009 (ip), vehicle: saline with Tween-80 95 % of control | dose: 6.25 mg/kg/injection, schedule: Q01DX009 (ip), vehicle: saline with Tween-80 91 % of control | dose: 6.25 mg/kg/injection, schedule: Q04DX003 (ip), vehicle: saline with Tween-80 94 % of control | dose: 12.5 mg/kg/injection, schedule: Q01DX009 (ip), vehicle: saline with Tween-80 97 % of control | dose: 12.5 mg/kg/injection, schedule: Q04DX003 (ip), vehicle: saline with Tween-80 101 % of control | dose: 25.0 mg/kg/injection, schedule: Q01DX009 (ip), vehicle: saline with Tween-80 91 % of control | dose: 25.0 mg/kg/injection, schedule: Q04DX003 (ip), vehicle: saline with Tween-80 103 % of control

CC(C)(C)c1ccc(CN2CCN(C(c3ccccc3)c3ccc(Cl)cc3)CC2)cc1 (stereo unspecified)
inactive: dose: 0.39 mg/kg/injection, schedule: Q01DX009 (ip), vehicle: Klucel (hydroxypropylcellulose) (HPC) 86 % of control | dose: 3.12 mg/kg/injection, schedule: Q01DX009 (ip), vehicle: Klucel (hydroxypropylcellulose) (HPC) 95 % of control | dose: 6.25 mg/kg/injection, schedule: Q01DX009 (ip), vehicle: Klucel (hydroxypropylcellulose) (HPC) 90 % of control | dose: 12.5 mg/kg/injection, schedule: Q01DX009 (ip), vehicle: Klucel (hydroxypropylcellulose) (HPC) 87 % of control | dose: 175.0 nanograms/kg/injection, schedule: Q01DX009 (ip), vehicle: Klucel (hydroxypropylcellulose) (HPC) 105 % of control | dose: 350.0 nanograms/kg/injection, schedule: Q01DX009 (ip), vehicle: Klucel (hydroxypropylcellulose) (HPC) 105 % of control | dose: 700.0 nanograms/kg/injection, schedule: Q01DX009 (ip), vehicle: Klucel (hydroxypropylcellulose) (HPC) 101 % of control | dose: 1400.0 nanograms/kg/injection, schedule: Q01DX009 (ip), vehicle: Klucel (hydroxypropylcellulose) (HPC) 105 % of control | dose: 2800.0 nanograms/kg/injection, schedule: Q01DX009 (ip), vehicle: Klucel (hydroxypropylcellulose) (HPC) 107 % of control

O=C1c2ccccc2C(=O)c2c(NCCNCCNCCO)ccc(NCCNCCNCCO)c21
inactive: dose: 8.0 mg/kg/injection, schedule: Q01DX009 (ip), vehicle: acid diluted with saline 97 % of control | dose: 16.0 mg/kg/injection, schedule: Q01DX009 (ip), vehicle: acid diluted with saline 101 % of control | dose: 32.0 mg/kg/injection, schedule: Q01DX009 (ip), vehicle: acid diluted with saline 103 % of control | dose: 64.0 mg/kg/injection, schedule: Q01DX009 (ip), vehicle: acid diluted with saline 100 % of control | dose: 128.0 mg/kg/injection, schedule: Q01DX009 (ip), vehicle: acid diluted with saline 98 % of control

COc1ccc(NC(=O)Nc2ccc(Cl)cc2)cc1
inactive: dose: 100.0 mg/kg/injection, schedule: Q04DX003 (ip), vehicle: Klucel (hydroxypropylcellulose) (HPC) 100 % of control | dose: 200.0 mg/kg/injection, schedule: Q04DX003 (ip), vehicle: Klucel (hydroxypropylcellulose) (HPC) 95 % of control | dose: 400.0 mg/kg/injection, schedule: Q04DX003 (ip), vehicle: Klucel (hydroxypropylcellulose) (HPC) 90 % of control
